This note sets out measurements from PubChem BioAssay AID2038 (NMMLSC, 2009).

Structures are written as SMILES. The source made the active and inactive calls. The rule behind the calls is not given here.

GTPase HRas (Homo sapiens), sequence (P01112 whole entry, looked up): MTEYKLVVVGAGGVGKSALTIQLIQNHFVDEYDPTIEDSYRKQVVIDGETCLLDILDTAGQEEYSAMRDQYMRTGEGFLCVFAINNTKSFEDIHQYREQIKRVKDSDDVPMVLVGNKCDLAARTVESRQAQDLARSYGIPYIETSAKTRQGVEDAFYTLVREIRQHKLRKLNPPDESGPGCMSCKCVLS

The first assay has as its target GTPase HRas (Homo sapiens) (UniProt P01112). The experiment in a line: Ras wt fluorescent nucleotide binding blockade – biochemical, additional analogs, wildtype, multiplex flow cytometry, Ki, SAR follow-up (AID 2038). Conditions: Multiplex bead flow cytometry, fluorescent GTP binding. (In general: A flow cytometer gives signals particle by particle.)
For orientation: EC50 means the concentration giving half of the maximal effect. With `O=C1C(c2c(O)[nH]c3ccc(Br)cc23)=Nc2ccccc21`, the EC50 was > 30 µM (inactive). Same read-out and setting: for `COc1ccc2cc([C@H](C)C(=O)O)ccc2c1` the value was > 30 µM (inactive); for `O=Nc1c(-c2c(O)[nH]c3c(F)cccc23)[nH]c2ccccc12`, > 30 µM (inactive).

As to `O=C1C(c2c(O)[nH]c3c(Br)cccc23)=Nc2ccccc21`, the EC50 is > 30 µM (inactive).

For the molecule `O=Nc1c(-c2c(O)[nH]c3ccc(Br)cc23)[nH]c2ccccc12`, the EC50 is > 30 µM (inactive). The same measure, in the same setting: for `O=Nc1c(-c2c(O)[nH]c3c(Cl)cccc23)[nH]c2ccccc12` the value was > 30 µM (inactive); for `O=C1C(c2c(O)[nH]c3c(F)cccc23)=Nc2ccccc21`, > 30 µM (inactive). `O=Nc1c(-c2c(O)[nH]c3ccccc23)[nH]c2ccccc12`: the EC50 is > 30 µM (inactive).

For `O=C1N=c2ccccc2=C1c1[nH]c(=O)[nH]c1O`, the EC50 was > 30 µM (inactive). Still for that read-out and setting: with `O=Nc1c(-c2c(O)[nH]c3c(Br)cccc23)[nH]c2ccccc12` the figure was > 37.5 µM (inactive).

For the molecule `O=C1N=c2ccccc2=C1c1[nH]c(=S)[nH]c1O`, the EC50 is > 30 µM (inactive). The same measure, in the same setting: with `O=C1C(c2c(O)[nH]c3c(Cl)cccc23)=Nc2ccccc21` the figure was > 30 µM (inactive); with `O=C1C(c2c(O)[nH]c3ccccc23)=Nc2ccccc21`, > 30 µM (inactive).

Still in this assay, the particulars now being: Multiplex bead flow cytometry, fluorescent GTP binding; measured here: Ki from EC50.
One may read the Ki as a dissociation constant, usually derived from enzyme kinetics or from competition with a known ligand. A low value points to higher affinity. In turn, `COc1ccc2cc([C@@H](C)C(=O)O)ccc2c1` showed a Ki of 0.49 µM.

`O=C(C#Cc1ccccc1)c1ccc(F)cc1`: the Ki was determined as 4.84 µM.

Molecule `O=Nc1c(-c2c(O)[nH]c3c(Br)cccc23)[nH]c2ccccc12` had a Ki of 5.85 µM.
